Results taken from ChEMBL document CHEMBL3352227, “Synthesis, antimycobacterial and antibacterial evaluation of l-[(1R, 2S)-2-fluorocyclopropyl]fluoroquinolone derivatives containing an oxime functional moiety” (Eur J Med Chem, 2014).
Converted amounts (≈) assume the structure as drawn.

What was measured:
Type in all cases: functional
Staphylococcus aureus [1] = test: Antibacterial activity against methicillin-sensitive Staphylococcus aureus 12-2 after 18 to 24 hrs by standard twofold serial dilution method
Escherichia coli [2] = test: Antibacterial activity against Escherichia coli 12-1 after 18 to 24 hrs by standard twofold serial dilution method
[3] = test system: Staphylococcus epidermidis; test: Antibacterial activity against methicillin-resistant Staphylococcus epidermidis 12-6 after 18 to 24 hrs by standard twofold serial dilution method
Escherichia coli [4] = test: Antibacterial activity against Escherichia coli ATCC 25922 after 18 to 24 hrs by standard twofold serial dilution method
[5] = test system: Staphylococcus epidermidis; test: Antibacterial activity against methicillin-sensitive Staphylococcus epidermidis 12-3 after 18 to 24 hrs by standard twofold serial dilution method
Streptococcus pneumoniae [6] = test: Antibacterial activity against Streptococcus pneumoniae ATCC 49619 after 18 to 24 hrs by standard twofold serial dilution method
Streptococcus pneumoniae [7] = test: Antibacterial activity against Streptococcus pneumoniae 12-18 after 18 to 24 hrs by standard twofold serial dilution method
Pseudomonas aeruginosa [8] = test: Antibacterial activity against Pseudomonas aeruginosa 12-14 after 18 to 24 hrs by standard twofold serial dilution method
Escherichia coli [9] = test: Antibacterial activity against extended-spectrum beta-lactamase producing Escherichia coli 12-2 after 18 to 24 hrs by standard twofold serial dilution method
Klebsiella pneumoniae [10] = test: Antibacterial activity against extended-spectrum beta-lactamase producin Klebsiella pneumoniae 12-7 after 18 to 24 hrs by standard twofold serial dilution method
Pseudomonas aeruginosa [11] = test: Antibacterial activity against Pseudomonas aeruginosa 12-12 after 18 to 24 hrs by standard twofold serial dilution method
Escherichia coli [12] = test: Antibacterial activity against extended-spectrum beta-lactamase producing Escherichia coli 12-14 after 18 to 24 hrs by standard twofold serial dilution method
Escherichia coli [13] = test: Antibacterial activity against extended-spectrum beta-lactamase producing Escherichia coli 12-3 after 18 to 24 hrs by standard twofold serial dilution method
Staphylococcus aureus [14] = test: Antibacterial activity against methicillin-sensitive Staphylococcus aureus 12-5 after 18 to 24 hrs by standard twofold serial dilution method
[15] = test system: Staphylococcus epidermidis; test: Antibacterial activity against methicillin-sensitive Staphylococcus epidermidis 12-1 after 18 to 24 hrs by standard twofold serial dilution method
Klebsiella pneumoniae [16] = test: Antibacterial activity against Klebsiella pneumoniae 12-1 after 18 to 24 hrs by standard twofold serial dilution method
Klebsiella pneumoniae [17] = test: Antibacterial activity against extended-spectrum beta-lactamase producin Klebsiella pneumoniae 12-3 after 18 to 24 hrs by standard twofold serial dilution method
[18] = test system: Staphylococcus epidermidis; test: Antibacterial activity against methicillin-sensitive Staphylococcus epidermidis 12-8 after 18 to 24 hrs by standard twofold serial dilution method
[19] = test system: Staphylococcus epidermidis; test: Antibacterial activity against methicillin-sensitive Staphylococcus epidermidis 12-6 after 18 to 24 hrs by standard twofold serial dilution method
Klebsiella pneumoniae [20] = test: Antibacterial activity against extended-spectrum beta-lactamase producin Klebsiella pneumoniae 12-4 after 18 to 24 hrs by standard twofold serial dilution method
[21] = test system: Mycobacterium tuberculosis; test: Antimycobacterial activity against Mycobacterium tuberculosis H37Rv ATCC 27294 by MABA method
[22] = test system: Staphylococcus epidermidis; test: Antibacterial activity against methicillin-resistant Staphylococcus epidermidis 12-1 after 18 to 24 hrs by standard twofold serial dilution method
Staphylococcus aureus [23] = test: Antibacterial activity against methicillin-sensitive Staphylococcus aureus 12-1 after 18 to 24 hrs by standard twofold serial dilution method
Staphylococcus aureus [24] = test: Antibacterial activity against Staphylococcus aureus ATCC 25923 after 18 to 24 hrs by standard twofold serial dilution method
Klebsiella pneumoniae [25] = test: Antibacterial activity against extended-spectrum beta-lactamase producin Klebsiella pneumoniae 12-14 after 18 to 24 hrs by standard twofold serial dilution method
Klebsiella pneumoniae [26] = test: Antibacterial activity against Klebsiella pneumoniae 12-4 after 18 to 24 hrs by standard twofold serial dilution method
Escherichia coli [27] = test: Antibacterial activity against extended-spectrum beta-lactamase producing Escherichia coli 12-15 after 18 to 24 hrs by standard twofold serial dilution method
Staphylococcus aureus [28] = test: Antibacterial activity against methicillin-resistant Staphylococcus aureus 12-2 after 18 to 24 hrs by standard twofold serial dilution method
Staphylococcus aureus [29] = test: Antibacterial activity against methicillin-sensitive Staphylococcus aureus 12-4 after 18 to 24 hrs by standard twofold serial dilution method
Klebsiella pneumoniae [30] = test: Antibacterial activity against Klebsiella pneumoniae 12-2 after 18 to 24 hrs by standard twofold serial dilution method
Staphylococcus aureus [31] = test: Antibacterial activity against methicillin-resistant Staphylococcus aureus 12-5 after 18 to 24 hrs by standard twofold serial dilution method
Staphylococcus aureus [32] = test: Antibacterial activity against methicillin-resistant Staphylococcus aureus 12-4 after 18 to 24 hrs by standard twofold serial dilution method

| Compound | MIC (Staphylococcus aureus [1]) | MIC (Escherichia coli [2]) | MIC [3] | MIC (Escherichia coli [4]) | MIC [5] | MIC (Streptococcus pneumoniae [6]) | MIC (Streptococcus pneumoniae [7]) | MIC (Pseudomonas aeruginosa [8]) | MIC (Escherichia coli [9]) | MIC (Klebsiella pneumoniae [10]) | MIC (Pseudomonas aeruginosa [11]) | MIC (Escherichia coli [12]) | MIC (Escherichia coli [13]) | MIC (Staphylococcus aureus [14]) | MIC [15] | MIC (Klebsiella pneumoniae [16]) | MIC (Klebsiella pneumoniae [17]) | MIC [18] | MIC [19] | MIC (Klebsiella pneumoniae [20]) | further results |
| --- | --- | --- | --- | --- | --- | --- | --- | --- | --- | --- | --- | --- | --- | --- | --- | --- | --- | --- | --- | --- | --- |
| CO/N=C1/CN(c2c(F)cc3c(=O)c(C(=O)O)cn([C@@H]4C[C@@H]4F)c3c2Cl)CC1CN (stereo partly specified) | 0.125 µg/mL (≈ 0.284 µM) | 1 µg/mL (≈ 2.27 µM) | 4 µg/mL (≈ 9.07 µM) | 0.125 µg/mL (≈ 0.284 µM) | 0.5 µg/mL (≈ 1.13 µM) | 0.25 µg/mL (≈ 0.567 µM) | 1 µg/mL (≈ 2.27 µM) | 16 µg/mL (≈ 36.3 µM) | 64 µg/mL (≈ 145 µM) | 4 µg/mL (≈ 9.07 µM) | 1 µg/mL (≈ 2.27 µM) | 64 µg/mL (≈ 145 µM) | 32 µg/mL (≈ 72.6 µM) | 0.125 µg/mL (≈ 0.284 µM) | 0.125 µg/mL (≈ 0.284 µM) | 0.25 µg/mL (≈ 0.567 µM) | 32 µg/mL (≈ 72.6 µM) | 2 µg/mL (≈ 4.54 µM) | 0.125 µg/mL (≈ 0.284 µM) | 16 µg/mL (≈ 36.3 µM) | MIC [21]: 4 µg/mL (≈ 9.07 µM); MIC [22]: 4 µg/mL (≈ 9.07 µM); MIC (Staphylococcus aureus [23]): 0.125 µg/mL (≈ 0.284 µM); MIC (Staphylococcus aureus [24]): < 0.008 µg/mL; MIC (Klebsiella pneumoniae [25]): 32 µg/mL (≈ 72.6 µM); MIC (Klebsiella pneumoniae [26]): 0.25 µg/mL (≈ 0.567 µM); MIC (Escherichia coli [27]): 128 µg/mL (≈ 290 µM); MIC (Staphylococcus aureus [28]): 16 µg/mL (≈ 36.3 µM); MIC (Staphylococcus aureus [29]): 0.06 µg/mL (≈ 0.136 µM); MIC (Klebsiella pneumoniae [30]): 0.25 µg/mL (≈ 0.567 µM); MIC (Staphylococcus aureus [31]): 16 µg/mL (≈ 36.3 µM); MIC (Staphylococcus aureus [32]): 16 µg/mL (≈ 36.3 µM) |
| NC[C@@H]1/C(=N\OCc2ccccc2)CN1c1nc2c(cc1F)c(=O)c(C(=O)O)cn2[C@@H]1C[C@@H]1F | 0.25 µg/mL (≈ 0.533 µM) | 4 µg/mL (≈ 8.52 µM) | 32 µg/mL (≈ 68.2 µM) | 0.5 µg/mL (≈ 1.07 µM) | 1 µg/mL (≈ 2.13 µM) | 1 µg/mL (≈ 2.13 µM) | 4 µg/mL (≈ 8.52 µM) | 128 µg/mL (≈ 273 µM) | > 128 µg/mL | 8 µg/mL (≈ 17 µM) | 8 µg/mL (≈ 17 µM) | > 128 µg/mL | 16 µg/mL (≈ 34.1 µM) | 0.25 µg/mL (≈ 0.533 µM) | 0.5 µg/mL (≈ 1.07 µM) | 1 µg/mL (≈ 2.13 µM) | > 128 µg/mL | 32 µg/mL (≈ 68.2 µM) | 0.5 µg/mL (≈ 1.07 µM) | 32 µg/mL (≈ 68.2 µM) | MIC [21]: 2 µg/mL (≈ 4.26 µM); MIC [22]: 32 µg/mL (≈ 68.2 µM); MIC (Staphylococcus aureus [23]): 0.5 µg/mL (≈ 1.07 µM); MIC (Staphylococcus aureus [24]): 0.5 µg/mL (≈ 1.07 µM); MIC (Klebsiella pneumoniae [25]): 128 µg/mL (≈ 273 µM); MIC (Klebsiella pneumoniae [26]): 1 µg/mL (≈ 2.13 µM); MIC (Escherichia coli [27]): > 128 µg/mL; MIC (Staphylococcus aureus [28]): 128 µg/mL (≈ 273 µM); MIC (Staphylococcus aureus [29]): 0.25 µg/mL (≈ 0.533 µM); MIC (Klebsiella pneumoniae [30]): 1 µg/mL (≈ 2.13 µM); MIC (Staphylococcus aureus [31]): 128 µg/mL (≈ 273 µM); MIC (Staphylococcus aureus [32]): 128 µg/mL (≈ 273 µM) |
| NC[C@H]1/C(=N\OCc2ccccc2)CN1c1cc2c(cc1F)c(=O)c(C(=O)O)cn2[C@@H]1C[C@@H]1F | 0.03 µg/mL (≈ 0.064 µM) | 2 µg/mL (≈ 4.27 µM) | 16 µg/mL (≈ 34.2 µM) | 0.125 µg/mL (≈ 0.267 µM) | 0.25 µg/mL (≈ 0.534 µM) | 0.25 µg/mL (≈ 0.534 µM) | 1 µg/mL (≈ 2.13 µM) | 6 µg/mL (≈ 12.8 µM) | 128 µg/mL (≈ 273 µM) | 1 µg/mL (≈ 2.13 µM) | 2 µg/mL (≈ 4.27 µM) | 64 µg/mL (≈ 137 µM) | 16 µg/mL (≈ 34.2 µM) | 0.125 µg/mL (≈ 0.267 µM) | 0.125 µg/mL (≈ 0.267 µM) | 0.125 µg/mL (≈ 0.267 µM) | 32 µg/mL (≈ 68.3 µM) | 2 µg/mL (≈ 4.27 µM) | 0.125 µg/mL (≈ 0.267 µM) | 8 µg/mL (≈ 17.1 µM) | MIC [21]: 0.5 µg/mL (≈ 1.07 µM); MIC [22]: 4 µg/mL (≈ 8.54 µM); MIC (Staphylococcus aureus [23]): 0.125 µg/mL (≈ 0.267 µM); MIC (Staphylococcus aureus [24]): 0.015 µg/mL (≈ 0.032 µM); MIC (Klebsiella pneumoniae [25]): 64 µg/mL (≈ 137 µM); MIC (Klebsiella pneumoniae [26]): 0.25 µg/mL (≈ 0.534 µM); MIC (Escherichia coli [27]): > 128 µg/mL; MIC (Staphylococcus aureus [28]): 16 µg/mL (≈ 34.2 µM); MIC (Staphylococcus aureus [29]): 0.03 µg/mL (≈ 0.064 µM); MIC (Klebsiella pneumoniae [30]): 0.06 µg/mL (≈ 0.128 µM); MIC (Staphylococcus aureus [31]): 8 µg/mL (≈ 17.1 µM); MIC (Staphylococcus aureus [32]): 16 µg/mL (≈ 34.2 µM) |
